Tested on: sheep vascular endothelial cell (SVEC)
Assay: SVEC proliferation/cytotoxicity, CellTiterBlue assay
Format: cell-based
Conditions: without growth factors
Experimental: The cell media used was the EGM-2 Bullet Kit (CC-3162) from Lonza. It consists of 500 mL of basal media, antibiotics GA-1000 (Gentamicin, Amphotecerin-B), FBS (Fetal Bovine Serum) 10 mL, and a kit of growth factors (VEGF, hFGF-B, R3-IGF-1, Ascorbic Acid, Heparin). • In vitro viability assay:Live/dead assay • In vitro cytotoxicity(biocompatibility)/proliferation assay: CellTiterBlue® assay • This in vitro test was to find the optimal linoleic acid content in the material. Cells were cultured in different concentration of LA. […]
The fluorescence of live cells were measured at three time points:1, 3, 5 days. […] Fluorescence was recorded triple times for each well at 560 nm/590 nm excitation/emission.

With `CCCCC/C=C\C/C=C\CCCCCCCC(=O)O` [LA, linoleic acid] the SVEC proliferation (36 nM LA) was “higher proliferation than the cells in the positive control medium” and the SVEC proliferation (360 nM LA) was “higher proliferation than the cells in the positive control medium”.

— US20180051132A1, “ELASTOMER COUPLED WITH BIOACTIVE FATTY ACID” (University of Pittsburgh - Of the Commonwealth System of …, priority 2016, published 2018)
